The values that follow come from patent publication US20050288185A1, “Substituted phenyluracils” (priority 2002, published 2005).

Data set [1] in a line: log P determination by HPLC (reversed-phase C18), EEC Directive 79/831 Annex V.A8. Particulars: reversed-phase C18 HPLC column; pH 2.3; HPLC reversed-phase C18, 43° C. The class given is physicochemical. As for the experimental part:
The log P values given in the table were determined in accordance with EEC Directive 79/831 Annex V.A8 by HPLC (High Performance Liquid Chromatography) using a reversed-phase column (C 18). Temperature: 43° C. (a) Mobile phases for the determination in the acidic range: 0.1% aqueous phosphoric acetonitrile; linear gradient from 10% acetonitrile to 90% acetonitrile—the sponding measurement results in Table 1 are marked ^a). (b) Mobile phases for the determination in the neutral range: 0.01 molar aqueous phosphate buffer solution, acetonitrile; linear gradient from 10% acetonitrile to 90% acetonitrile—the corresponding measurement results in Table 1 are marked^b). Calibration was carried out using unbranched alkan-2-ones (with 3 to 16 carbon atoms) with known log P values (determination of the log P values by the retention times using linear interpolation between two successive alkanones).

The subject of data set [2] is weeds. Put plainly: Pre-emergence test (Example A), activity against weeds. Format: in vivo. Particulars: soil sprayed 24 hours after sowing, rated after three weeks. An excerpt:
(§1) Solvent: 5 parts by weight of acetone
(§2) Emulsifier: 1 part by weight of alkylaryl polyglycol ether
Seeds of the test plants are sown in normal soil.
(§3) After three weeks, the degree of damage to the plants is rated in % damage in comparison to the development of the untreated control.

Data set [3] has as its system weeds. Put plainly: Post-emergence test (Example B), activity against weeds. The class given is in vivo. Particulars: test plants 5-15 cm sprayed, rated after three weeks.
From the text: as §1, §2, §3

The chromatographic logP is lipophilicity estimated from chromatographic retention. Molecule `COC(=O)c1occc1COc1cc(-n2c(=O)cc(C(F)(F)F)n(C)c2=O)c(F)cc1Br` [Example 2, methyl 3-[2-bromo-5-(2,6-dioxo-3-methyl-4-trifluoromethyl-3,6-dihydro-2H-pyrimidin-1-yl)-4-fluorophenoxymethyl]furan-2-carboxylate] registered a chromatographic logP in data set [1] of 3.34. Besides, the “activity against weeds (degree of damage)” value with weeds [2] and in the data set with weeds [3] was “very strong activity against weeds” each time.

In data set [1], `COC(=O)c1ccoc1COc1cc(-n2c(=O)cc(C(F)(F)F)n(N)c2=O)c(F)cc1Br` [Example 3, methyl 2-[2-bromo-5-(3-amino-2,6-dioxo-4-trifluoromethyl-3,6-dihydro-2H-pyrimidin-1-yl)-4-fluorophenoxymethyl]furan-3-carboxylate] showed a chromatographic logP of 3. The “activity against weeds (degree of damage)” value with weeds [2] and in the data set on weeds [3] was “very strong activity against weeds” throughout.
